Measurements reported in paper PMC6395927, “Rufomycin Targets ClpC1 Proteolysis in Mycobacterium tuberculosis and M. abscessus” (Antimicrobial Agents and Chemotherapy, 2019).
Several values for one entry are separate records, joined by “and”; a condition that tells them apart may be missing. Equal entries are not always repeated.

Columns and labels:
Assay type in all cases: cell-based, Mycobacterium tuberculosis
[1] = tested on: rRUFI M. tuberculosis strains (clpC1 mutants)
[2] = tested on: rECU M. tuberculosis strains (clpC1 mutants)
[3] = tested on: M. tuberculosis clinical isolates (pan-susceptible, MDR, XDR)

Row | Compound | MIC [1] | MIC [2] | activity against monoresistant, MDR, and XDR strains [3]
1 | NNC(=O)c1ccncc1 [INH, isoniazid] | 0.22 µM and 0.23 µM and 0.12 µM and 0.24 µM |  | 
2 | CC(=O)NC[C@H]1CN(c2ccc(N3CCOCC3)c(F)c2)C(=O)O1 [LZD, linezolid] |  | 2.5 µM and 1.9 µM and 1.6 µM | 
3 | O=[N+]([O-])c1cn2c(n1)OC[C@@H](OCc1ccc(OC(F)(F)F)cc1)C2 [PA824, pretomanid] | <0.031 µM and 0.041 µM and 0.046 µM | <0.031 µM | 
4 | C/C=C/C[C@@H]1NC(=O)[C@H](CC(C)C)N2C(=O)C(C[C@H](C)[C@H]2O)N(C)C(=O)[C@H](C)NC(=O)[C@H](Cc2ccc(O)c([N+](=O)[O-])c2)NC(=O)[C@H](CC(C)C)N(C)C(=O)[C@H](Cc2cn(C(C)(C)C3CO3)c3ccccc23)NC1=O (some centres unmarked) [RUFI, rufomycin I] |  | <0.01 µM and 0.017 µM | maintains activity
5 | [H]/N=C(/N)N[C@H]1[C@H](O)[C@@H](O)[C@H](O[C@@H]2O[C@@H](C)[C@](O)(C=O)[C@H]2O[C@@H]2O[C@@H](CO)[C@H](O)[C@@H](O)[C@@H]2NC)[C@@H](N/C(N)=N\[H])[C@@H]1O [STR, streptomycin] |  | 0.15 µM and 0.16 µM | 
6 | capreomycin |  | 0.42 µM and 0.49 µM | 
